Results published in paper PMC4625925, “One amino acid makes the difference: the formation of ent-kaurene and 16α-hydroxy-ent-kaurane by diterpene synthases in poplar” (BMC Plant Biology, 2015).

What was measured:
PtTPS17 = target: T1, PtTPS17 (Populus trichocarpa, UniProt A0A0S1TFB5); assay: GC-MS product analysis; assay type: biochemical; conditions: 50 µM GGPP, 5 mM MgCl2, pH 7.5, 25 °C, 2 h; product ent-CPP detected as copalol
T1 construct: N-terminally truncated (delta 65 aa, transit peptide removed), pET200 (N-terminal His tag), E. coli BL21(DE3), partially purified
T1 sequence (A0A0S1TFB5 66-795): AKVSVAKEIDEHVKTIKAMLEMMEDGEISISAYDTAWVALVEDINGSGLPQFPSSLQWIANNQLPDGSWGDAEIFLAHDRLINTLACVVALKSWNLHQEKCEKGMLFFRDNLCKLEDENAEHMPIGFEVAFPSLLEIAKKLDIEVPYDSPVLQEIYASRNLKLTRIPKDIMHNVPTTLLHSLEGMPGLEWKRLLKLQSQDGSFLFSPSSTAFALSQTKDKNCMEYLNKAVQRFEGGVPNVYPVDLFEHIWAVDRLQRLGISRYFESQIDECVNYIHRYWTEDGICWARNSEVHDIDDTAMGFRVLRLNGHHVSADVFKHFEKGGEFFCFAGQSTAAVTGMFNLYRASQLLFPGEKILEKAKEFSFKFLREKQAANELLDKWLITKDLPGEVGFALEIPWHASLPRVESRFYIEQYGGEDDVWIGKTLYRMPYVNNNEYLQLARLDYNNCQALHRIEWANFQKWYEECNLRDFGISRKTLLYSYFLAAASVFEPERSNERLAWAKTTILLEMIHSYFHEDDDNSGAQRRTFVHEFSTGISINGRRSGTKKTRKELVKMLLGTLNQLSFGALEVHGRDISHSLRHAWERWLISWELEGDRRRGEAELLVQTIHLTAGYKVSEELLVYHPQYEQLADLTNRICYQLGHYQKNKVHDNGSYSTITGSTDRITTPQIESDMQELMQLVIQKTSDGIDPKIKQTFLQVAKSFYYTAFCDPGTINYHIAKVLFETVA

PtTPS19 = target: T2, PtTPS19 (Populus trichocarpa, UniProt A0A0S1TJ32); assay: GC-MS product analysis, ent-CPP made in situ; assay type: biochemical; conditions: ent-CPP from GGPP by coupled PtTPS17; 5 mM MgCl2, pH 7.5, 25 °C, 2 h
T2 construct: N-terminally truncated (delta 42 aa, transit peptide removed), pET200 (N-terminal His tag), E. coli BL21(DE3), partially purified
T2 sequence (A0A0S1TJ32 entry or part of it): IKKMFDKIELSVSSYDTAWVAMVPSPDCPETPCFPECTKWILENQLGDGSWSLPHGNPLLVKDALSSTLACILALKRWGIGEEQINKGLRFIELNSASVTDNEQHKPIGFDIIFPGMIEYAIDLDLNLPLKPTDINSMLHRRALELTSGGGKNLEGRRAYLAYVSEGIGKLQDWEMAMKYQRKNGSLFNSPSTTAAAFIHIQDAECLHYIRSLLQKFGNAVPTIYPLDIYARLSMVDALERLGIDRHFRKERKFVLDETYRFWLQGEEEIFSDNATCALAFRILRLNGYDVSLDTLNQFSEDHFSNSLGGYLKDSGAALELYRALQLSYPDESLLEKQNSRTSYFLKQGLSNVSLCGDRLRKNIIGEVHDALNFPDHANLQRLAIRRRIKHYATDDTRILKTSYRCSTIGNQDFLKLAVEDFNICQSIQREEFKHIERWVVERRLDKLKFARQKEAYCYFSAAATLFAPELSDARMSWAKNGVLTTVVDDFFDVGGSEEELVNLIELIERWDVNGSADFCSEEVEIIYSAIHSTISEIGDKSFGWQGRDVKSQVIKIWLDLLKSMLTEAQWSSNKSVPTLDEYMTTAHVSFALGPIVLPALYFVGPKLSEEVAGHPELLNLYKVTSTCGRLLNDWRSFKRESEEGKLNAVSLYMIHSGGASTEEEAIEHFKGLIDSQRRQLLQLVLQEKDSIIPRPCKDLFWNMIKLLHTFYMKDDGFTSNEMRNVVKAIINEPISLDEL

| SMILES | GC-MS product analysis (PtTPS17) | GC-MS product analysis, ent-CPP made in situ (PtTPS19) |
| --- | --- | --- |
| CC(C)=CCC/C(C)=C/CC/C(C)=C/CC/C(C)=C/COP(=O)(O)OP(=O)(O)O [(E,E,E)-GGPP] | When PtTPS17 was incubated with GGPP, copalol was detected | – |
| C=C1CC[C@@H]2C(C)(C)CCC[C@@]2(C)[C@@H]1CC/C(C)=C/COP(=O)(O)OP(=O)(O)O [ent-CPP] | – | PtTPS19 converted ent-CPP into ent-kaurene |
